System: SKBR-3 cell line (human breast cancer)
Assay: Cytotoxicity Assay (Cell titer glo, 72 h), SKBR-3
Format: cell-based
Conditions: for IC50: Homo sapiens, SK-BR-3, free payloads, 72 hours; for Normalized IC50 (PL IC50/DXD IC50): ratio of payload IC50 to DXD control IC50
Protocol: Day 1: 2,000 cells/well were plated and incubated at 37° C. overnight.
Day 2: Payload/ADC/vehicle control dilutions were made in respective media and added to cells. Volume added: 50 uL to each well. Starting treatment concentration was 1 mM for free payloads/1 μM for ADC's/10% for vehicle control and then diluted 10-fold down for a total of 11 treatment dilutions. Each concentration was analyzed in triplicates. Media-only wells were used as a control to calculate percent viability.
Day 5: Cell titer glow reagent (volume: 50 uL) was added to each well, the plate was shaken for 5 mins and the luminescence was recorded. Drug Treatment Time: 72 hours. Data Analysis: Percent viability was calculated by dividing the luminescence signal obtained for each treated well by the untreated well (media-only control) and multiplying by 100. Data was next transformed using X=Log (x) and then analyzed with nonlinear regression (curve fit), Dose Response inhibition−log (inhibitor) vs response (3 parameters) using PRISM software to determine the IC50 value.

Row | Compound | IC50 | Normalized IC50 (PL IC50/DXD IC50)
1 | CC[C@@]1(O)C(=O)OCc2c1cc1n(c2=O)Cc2c-1nc1cc(F)c(C)cc1c2Cn1cc(COC2CCCCO2)nn1 (stereo partly drawn) [Payload 1] | 77.8 nM | 8.67
2 | CC[C@@]1(O)C(=O)OCc2c1cc1n(c2=O)Cc2c-1nc1cc(F)c(C)cc1c2Cn1cc(CO)nn1 [Payload 2] | 80.9 nM | 9.01
3 | CC[C@@]1(O)C(=O)OCc2c1cc1n(c2=O)Cc2c-1nc1cc(F)c(C)cc1c2Cn1nncc1CO [Payload 3] | 107 nM | 11.97
4 | CC[C@@]1(O)C(=O)OCc2c1cc1n(c2=O)Cc2c-1nc1cc(F)c(C)cc1c2Cn1cc(CNC(=O)OC(C)(C)C)nn1 [Payload 4] | 126 nM | 14.03
5 | CC[C@@]1(O)C(=O)OCc2c1cc1n(c2=O)Cc2c-1nc1cc(F)c(C)cc1c2Cn1cc(CN)nn1 [Payload 5] | 81.5 nM | 18.99
6 | CC[C@@]1(O)C(=O)OCc2c1cc1n(c2=O)Cc2c-1nc1cc(F)c(C)cc1c2Cn1cc(CNC)nn1 [Payload 6] | 690 nM | 94.92
7 | CC[C@@]1(O)C(=O)OCc2c1cc1n(c2=O)Cc2c-1nc1cc(F)c(C)cc1c2Cn1cc(CNC(=O)CO)nn1 [Payload 7] | 1830 nM | 203.99
8 | CC[C@@]1(O)C(=O)OCc2c1cc1n(c2=O)Cc2c-1nc1cc(F)c(C)cc1c2Cn1nncc1CN [Payload 8] | 16.5 nM | 1.84
9 | CC[C@@]1(O)C(=O)OCc2c1cc1n(c2=O)Cc2c-1nc1cc(F)c(C)cc1c2Cn1nncc1CNC [Payload 9] | 94.6 nM | 13.01
10 | CC[C@@]1(O)C(=O)OCc2c1cc1n(c2=O)Cc2c-1nc1cc(F)c(C)cc1c2Cn1cc(C(C)O)nn1 (stereo partly drawn) [Payload 11] | 194 nM | 45.22
11 | CC[C@@]1(O)C(=O)OCc2c1cc1n(c2=O)Cc2c-1nc1cc(F)c(C)cc1c2Cn1nnc(CO)c1CO [Payload 12] | 374 nM | 41.69
12 | CC[C@@]1(O)C(=O)OCc2c1cc1n(c2=O)Cc2c-1nc1cc(F)c(C)cc1c2Cn1cc(-c2ccc(N)cc2)nn1 [Payload 13] | 30.8 nM | 6.84
13 | CC[C@@]1(O)C(=O)OCc2c1cc1n(c2=O)Cc2c-1nc1cc(F)c(C)cc1c2Cn1cc(-c2ccc(NC(=O)CO)cc2)nn1 [Payload 15] | 25.8 nM | 27.79
14 | CC[C@@]1(O)C(=O)OCc2c1cc1n(c2=O)Cc2c-1nc1cc(F)c(C)cc1c2Cn1cc(-c2cccc(N)c2)nn1 [Payload 16] | 38.5 nM | 8.55
15 | CC[C@@]1(O)C(=O)OCc2c1cc1n(c2=O)Cc2c-1nc1cc(F)c(C)cc1c2Cn1cc(-c2ccccc2N)nn1 [Payload 19] | 22.4 nM | 4.96
16 | CC[C@@]1(O)C(=O)OCc2c1cc1n(c2=O)Cc2c-1nc1cc(F)c(C)cc1c2Cn1cc(CN2CCNCC2)nn1 [Payload 22] | 102 nM | 20.02
17 | CC[C@@]1(O)C(=O)OCc2c1cc1n(c2=O)Cc2c-1nc1cc(F)c(C)cc1c2Cn1cc(CN2CCC(CO)CC2)nn1 [Payload 23] | 1250 nM | 199.52
18 | CC[C@@]1(O)C(=O)OCc2c1cc1n(c2=O)Cc2c-1nc1cc(F)c(C)cc1c2Cn1cc(CNC(=O)CN)nn1 [Payload 32] | 336 nM | 21.94
19 | CC[C@@]1(O)C(=O)OCc2c1cc1n(c2=O)Cc2c-1nc1cc(F)c(C)cc1c2Cn1cc(CN2CCCC(N)C2)nn1 (stereo partly drawn) [Payload 33] | 32.9 nM | 22.96
20 | CC[C@@]1(O)C(=O)OCc2c1cc1n(c2=O)Cc2c-1nc1cc(F)c(C)cc1c2Cn1cc(CCN)nn1 [Payload 36] | 1010 nM | 203.63
21 | CC[C@@]1(O)C(=O)OCc2c1cc1n(c2=O)Cc2c-1nc1cc(F)c(C)cc1c2Cn1cc(CCNC)nn1 [Payload 37] | 50.8 nM | 3.32
22 | CC[C@@]1(O)C(=O)OCc2c1cc1n(c2=O)Cc2c-1nc1cc(F)c(C)cc1c2Cn1cc(CCNC(=O)CO)nn1 [Payload 38] | 34.6 nM | 37.23
23 | CC[C@@]1(O)C(=O)OCc2c1cc1n(c2=O)Cc2c-1nc1cc(F)c(C)cc1c2Cn1cc(CCO)nn1 [Payload 39] | 4.63 nM | 0.92
24 | CC[C@@]1(O)C(=O)OCc2c1cc1n(c2=O)Cc2c-1nc1cc(F)c(C)cc1c2Cn1cc(-c2cc(F)cnc2N)nn1 [Payload 46] | 3.68 nM | 0.24

Row | Compound | IC50 | Normalized IC50 (PL IC50/DXD IC50)
25 | CC[C@@]1(O)C(=O)OCc2c1cc1n(c2=O)Cc2c-1nc1cc(F)c(C)cc1c2Cn1cc(C2(N)CC2)nn1 [Payload 47] | 33.2 nM | 4.86
26 | CC[C@@]1(O)C(=O)OCc2c1cc1n(c2=O)Cc2c-1nc1cc(F)c(C)cc1c2Cn1cc(-c2cccc(N)n2)nn1 [Payload 48] | 40.2 nM | –
27 | CC[C@@]1(O)C(=O)OCc2c1cc1n(c2=O)Cc2c-1nc1cc(F)c(C)cc1c2Cn1cc(-c2cccnc2N)nn1 [Payload 49] | 8.14 nM | 1.30
28 | CC[C@@]1(O)C(=O)OCc2c1cc1n(c2=O)Cc2c-1nc1cc(F)c(C)cc1c2Cn1cc(C(C)N)nn1 (stereo partly drawn) [Payload 50] | 18.6 nM | 3.72
29 | CC[C@@]1(O)C(=O)OCc2c1cc1n(c2=O)Cc2c-1nc1cc(F)c(C)cc1c2Cn1cc(C(C)(C)N)nn1 [Payload 51] | 15.3 nM | 3.05
30 | CC[C@@]1(O)C(=O)OCc2c1cc1n(c2=O)Cc2c-1nc1cc(F)c(C)cc1c2Cn1cc(-c2ccc(N)nc2)nn1 [Payload 52] | 18 nM | 2.88
31 | CC[C@@]1(O)C(=O)OCc2c1cc1n(c2=O)Cc2c-1nc1cc(F)c(C)cc1c2Cn1cc(CCCN)nn1 [Payload 53] | 18 nM | 3.60
32 | CC[C@@]1(O)C(=O)OCc2c1cc1n(c2=O)Cc2c-1nc1cc(F)c(C)cc1c2Cn1cc(CN2CCCCC2CO)nn1 (stereo partly drawn) [Payload 54] | 8.94 nM | 6.24
33 | CC[C@@]1(O)C(=O)OCc2c1cc1n(c2=O)Cc2c-1nc1cc(F)c(C)cc1c2Cn1cc(COCCN)nn1 [Payload 55] | 25.2 nM | 17.60
34 | CC[C@@]1(O)C(=O)OCc2c1cc1n(c2=O)Cc2c-1nc1cc(F)c(C)cc1c2Cn1cc(CN2CCCC(CO)C2)nn1 (stereo partly drawn) [Payload 56] | 10.1 nM | 7.05
35 | CC[C@@]1(O)C(=O)OCc2c1cc1n(c2=O)Cc2c-1nc1cc(F)c(C)cc1c2Cn1cc(C2CCCN2)nn1 (stereo partly drawn) [Payload 57] | 18.3 nM | 12.80
36 | CC[C@@]1(O)C(=O)OCc2c1cc1n(c2=O)Cc2c-1nc1cc(F)c(C)cc1c2Cn1cc(CN2CCOC(CN)C2)nn1 (stereo partly drawn) [Payload 58] | 30.5 nM | 23.79
37 | CC[C@@]1(O)C(=O)OCc2c1cc1n(c2=O)Cc2c-1nc1cc(F)c(C)cc1c2Cn1cc(CCCO)nn1 [Payload 59] | 4.03 nM | 4.84
38 | CC[C@@]1(O)C(=O)OCc2c1cc1n(c2=O)Cc2c-1nc1cc(F)c(C)cc1c2Cn1cc(CN2CCN(C(=O)CO)CC2)nn1 [Payload 60] | 284 nM | 338.2
39 | CC[C@@]1(O)C(=O)OCc2c1cc1n(c2=O)Cc2c-1nc1cc(F)c(C)cc1c2Cn1cc(C2CCCN2C(=O)CO)nn1 (stereo partly drawn) [Payload 61] | 211 nM | 177.62
40 | CC[C@@]1(O)C(=O)OCc2c1cc1n(c2=O)Cc2c-1nc1cc(F)c(C)cc1c2Cn1cc(CN2CCOC(CNC(=O)CO)C2)nn1 (stereo partly drawn) [Payload 62] | 2040 nM | 1714.88
41 | CC[C@@]1(O)C(=O)OCc2c1cc1n(c2=O)Cc2c-1nc1cc(F)c(C)cc1c2Cn1cc(C2(NC(=O)CO)CC2)nn1 [Payload 63] | 41 nM | 44.21
42 | CC[C@@]1(O)C(=O)OCc2c1cc1n(c2=O)Cc2c-1nc1cc(F)c(C)cc1c2Cn1cc(C(C)NC(=O)CO)nn1 (stereo partly drawn) [Payload 64] | 20.6 nM | 22.21
43 | CC[C@@]1(O)C(=O)OCc2c1cc1n(c2=O)Cc2c-1nc1cc(F)c(C)cc1c2Cn1nncc1CCO [Payload 65] | 134 nM | 18.50
44 | CC[C@@]1(O)C(=O)OCc2c1cc1n(c2=O)Cc2c-1nc1cc(F)c(C)cc1c2Cn1cc(-c2ccccc2NC(=O)CN)nn1 [Payload 66] | 54.7 nM | 3.58
45 | CC[C@@]1(O)C(=O)OCc2c1cc1n(c2=O)Cc2c-1nc1cc(F)c(C)cc1c2Cn1cc(-c2ccc(NC(=O)CN)cc2)nn1 [Payload 67] | 9.15 nM | 0.60
46 | CC[C@@]1(O)C(=O)OCc2c1cc1n(c2=O)Cc2c-1nc1cc(F)c(C)cc1c2Cn1cc(CCCNC(=O)CO)nn1 [Payload 68] | 17.6 nM | 19.01
47 | CC[C@@]1(O)C(=O)OCc2c1cc1n(c2=O)Cc2c-1nc1cc(F)c(C)cc1c2Cn1cc(C(C)(C)NC(=O)CO)nn1 [Payload 69] | 95.8 nM | 104.13

Reference: US20260315612A1, “Topoisomerase Inhibitors, Methods of Making, and Methods of Use Thereof” (NJ Bio, Inc., priority 2023, published 2026)
